Data set [1] addresses T1, c-Met (cytoplasmic domain) (Homo sapiens, UniProt P08581).
T1 construct: Reactions were initiated with 30 ng/mL c-Met (cytoplasmic domain, Invitrogen Corporation #PV3143); purchased Invitrogen Corporation PV3143
Description: c-Met Kinase Assay (ELISA/TRF, PLC-γ substrate). It counts as biochemical. The note with it: 3 μM ATP (Km level); read-out: c-Met Kinase Inhibition (IC50). In short, it runs like this:
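Readout is TRF of europium anti-phosphotyrosine (PT66) bound to GST–PLC-γ substrate coated at 10 μg/mL, after a 15 min, 37 °C reaction started with 30 ng/mL c-Met cytoplasmic domain. Percent inhibition plotted against log compound concentration and fitted (variable slope) for IC50.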

The target of data set [2] is baculovirus-expressed ALK (Homo sapiens, UniProt Q9UM73). Description: ALK Kinase Assay (ELISA/TRF, PLC-γ substrate). Also: 1 µM ATP (Km level). Format: biochemical. To be noted: read-out: ALK Kinase Inhibition (IC50). A digest of the protocol:
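Read-out: TRF of europium-labeled anti-phosphotyrosine antibody bound to phosphorylated GST–PLC-γ coated at 10 μg/mL. Kinase step used 30 ng/ml ALK, 37° C, 15 minutes. IC50 values fitted by nonlinear sigmoidal dose-response (variable slope).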
(In general: In an ELISA, binding on a coated surface is turned into a signal by an enzyme label.)

Each structure is given as a SMILES string. Bounds are passed on as bounds.

The IC50 is the concentration that gives 50% inhibition. For orientation: melting point means the temperature of the solid-liquid transition.

Chain of baculovirus-expressed ALK (Q9UM73 19-1620): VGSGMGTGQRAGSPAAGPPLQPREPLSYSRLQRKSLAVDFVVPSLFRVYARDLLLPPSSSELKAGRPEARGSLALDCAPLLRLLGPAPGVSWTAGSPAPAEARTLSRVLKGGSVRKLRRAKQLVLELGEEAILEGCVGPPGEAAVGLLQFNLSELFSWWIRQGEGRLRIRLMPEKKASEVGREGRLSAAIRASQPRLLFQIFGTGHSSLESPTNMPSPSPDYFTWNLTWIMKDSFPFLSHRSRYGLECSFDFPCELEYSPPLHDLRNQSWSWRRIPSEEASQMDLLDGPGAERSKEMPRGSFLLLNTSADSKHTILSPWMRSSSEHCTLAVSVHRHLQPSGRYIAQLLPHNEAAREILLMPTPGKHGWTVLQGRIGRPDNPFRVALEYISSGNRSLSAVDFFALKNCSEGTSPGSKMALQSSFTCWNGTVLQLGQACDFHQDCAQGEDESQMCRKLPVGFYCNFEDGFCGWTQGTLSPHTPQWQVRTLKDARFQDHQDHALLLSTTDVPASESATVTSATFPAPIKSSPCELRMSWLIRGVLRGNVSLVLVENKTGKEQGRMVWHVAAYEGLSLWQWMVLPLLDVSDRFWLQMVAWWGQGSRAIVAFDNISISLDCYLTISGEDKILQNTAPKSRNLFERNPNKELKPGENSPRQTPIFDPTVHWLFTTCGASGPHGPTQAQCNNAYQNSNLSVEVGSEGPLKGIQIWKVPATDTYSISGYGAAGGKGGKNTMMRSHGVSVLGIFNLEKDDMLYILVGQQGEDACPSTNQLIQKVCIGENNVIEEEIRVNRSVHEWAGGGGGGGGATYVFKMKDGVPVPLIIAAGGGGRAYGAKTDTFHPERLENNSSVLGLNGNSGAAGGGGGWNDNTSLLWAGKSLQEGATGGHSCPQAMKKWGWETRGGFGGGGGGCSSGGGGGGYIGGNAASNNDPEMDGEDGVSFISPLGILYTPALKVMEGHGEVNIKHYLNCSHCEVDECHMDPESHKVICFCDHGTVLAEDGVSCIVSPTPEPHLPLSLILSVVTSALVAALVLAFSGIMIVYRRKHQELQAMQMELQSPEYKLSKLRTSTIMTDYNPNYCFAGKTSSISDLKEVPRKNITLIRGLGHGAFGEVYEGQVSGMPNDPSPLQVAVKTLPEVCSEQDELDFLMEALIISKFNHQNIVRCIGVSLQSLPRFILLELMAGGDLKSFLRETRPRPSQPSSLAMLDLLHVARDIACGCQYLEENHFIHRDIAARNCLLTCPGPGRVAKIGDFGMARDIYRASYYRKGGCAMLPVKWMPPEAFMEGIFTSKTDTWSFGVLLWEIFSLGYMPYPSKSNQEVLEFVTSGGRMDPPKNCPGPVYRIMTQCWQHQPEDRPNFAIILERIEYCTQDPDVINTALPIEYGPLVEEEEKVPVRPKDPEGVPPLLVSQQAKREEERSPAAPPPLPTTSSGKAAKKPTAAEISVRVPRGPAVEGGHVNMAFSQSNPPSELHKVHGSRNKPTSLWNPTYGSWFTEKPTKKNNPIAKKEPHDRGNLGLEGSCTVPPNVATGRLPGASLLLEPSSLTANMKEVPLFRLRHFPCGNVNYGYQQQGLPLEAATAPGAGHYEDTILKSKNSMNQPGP
T1 sequence (P08581 956-1390 limits assumed): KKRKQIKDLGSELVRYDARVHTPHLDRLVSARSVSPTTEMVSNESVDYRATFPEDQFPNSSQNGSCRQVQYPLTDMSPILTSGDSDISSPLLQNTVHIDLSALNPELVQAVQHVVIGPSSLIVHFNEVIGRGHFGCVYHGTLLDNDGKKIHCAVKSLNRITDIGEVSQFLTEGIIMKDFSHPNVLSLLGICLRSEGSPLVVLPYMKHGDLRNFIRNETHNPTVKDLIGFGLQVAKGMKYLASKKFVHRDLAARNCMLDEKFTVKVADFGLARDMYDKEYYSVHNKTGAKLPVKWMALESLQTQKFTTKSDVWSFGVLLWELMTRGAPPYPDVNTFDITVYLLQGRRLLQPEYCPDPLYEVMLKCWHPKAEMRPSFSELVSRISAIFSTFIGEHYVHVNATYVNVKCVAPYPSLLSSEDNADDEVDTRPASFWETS

For `O=C1CNc2ncc(-c3ccc(C(=O)N4CCC[C@H]4CN4CCCC4)cc3)cc2N1Cc1cc(F)c(F)cc1F` [Example 83, 7-[4-((S)-2-[(pyrrolidin-1-yl)methyl]pyrrolidine-1-carbonyl)phenyl]-1-(2,4,5-trifluorobenzyl)-3,4-dihydro-1H-pyrido[2,3-b]pyrazin-2-one], the melting point lay in the range of 117 to 118 °C. Moreover, in data set [1], the IC50 fell in the range of 10 to 100 µM. Also, in data set [2], the IC50 is 1 to 10 µM.

`CC1(C)CN(Cc2cc(F)ccc2F)c2cc(-c3ccc(C(=O)N4CCC[C@H]4CN4CCCC4)cc3)cnc2N1` [Example 96, {4-[1-(2,5-Difluorobenzyl)-3,3-dimethyl-1,2,3,4-tetrahydropyrido[2,3-b]pyrazin-7-yl]phenyl}-((S)-2-((pyrrolidin-1-yl)methyl)pyrrolidin-1-yl)methanone]: the melting point was 74 to 77 °C. The half-maximal inhibitory concentration (IC50) in data set [1] was in the range of 10 to 100 µM. For the same compound, the IC50 in data set [2] fell in the range of 1 to 10 µM.

As to `CN1CCN(C(=O)c2ccc(-c3cnc4c(c3)N(Cc3cc(F)ccc3F)CCN4)cc2)CC1` [Example 67, {4-[1-(2,5-Difluorobenzyl)-1,2,3,4-tetrahydropyrido[2,3-b]pyrazin-7-yl]phenyl}-(4-methylpiperazin-1-yl)methanone], the melting point came out at 180 °C. Besides, the IC50 in data set [1] was in the range of 1 to 10 µM. Besides, in data set [2], the IC50 lay within 0.1 to 1 µM.

On to `CN1CCN(C(=O)c2ccc(-c3cnc4c(c3)N(Cc3ccccc3)CCN4)cc2)CC1` [Example 37, [4-(1-Benzyl-1,2,3,4-tetrahydropyrido[2,3-b]pyrazin-7-yl)phenyl]-(4-methylpiperazin-1-yl)methanone], for which the melting point is 180 to 181 °C. The 50% inhibitory concentration (IC50) in data set [1] fell in the range of 10 to 100 µM. For the same compound, the IC50 in data set [2] lay in the range of 1 to 10 µM.

In the case of `CCOC(=O)c1ccc(-c2cnc3c(c2)N(Cc2cc(Cl)ccc2C(F)(F)F)CCN3)cc1` [Example 193, 4-{1-[5-Chloro-2-(trifluoromethyl)benzyl]-1,2,3,4-tetrahydropyrido[2,3-b]pyrazin-7-yl}benzoic acid ethyl ester], the melting point is 154 °C. In addition, the half-maximal inhibitory concentration (IC50) in data set [1] was over 100 µM. Besides, the concentration for half-maximal inhibition (IC50) in data set [2] was over 100 µM.

Consider `N#Cc1c(F)ccc(F)c1CN1CCNc2ncc(-c3ccc(N4CCOCC4)nc3)cc21` [Example 289, 3,6-Difluoro-2-[7-(6-morpholin-4-yl-pyridin-3-yl)-3,4-dihydro-2H-pyrido[2,3-b]pyrazin-1-ylmethyl]benzonitrile], for which the melting point lay in the range of 188 to 190 °C. Also, the IC50 in data set [1] fell in the range of 0.1 to 1 µM. In data set [2], the half-inhibitory concentration (IC50) was under 0.1 µM.

The compound `CC(=O)c1ccc(-c2cnc3c(c2)N(Cc2ccccc2)C(=O)CN3)cc1` [Example 21, 7-(4-Acetylphenyl)-1-benzyl-3,4-dihydro-1H-pyrido[2,3-b]pyrazin-2-one] had a melting point of 200 °C. In addition, the concentration for half-maximal inhibition (IC50) in data set [1] was over 100 µM. The IC50 in data set [2] is 10 to 100 µM.

As to `CN(C)CCCNC(=O)c1ccc(-c2cnc3c(c2)N(C(=O)c2ccccc2)CCN3)cc1` [Example 53, 4-(1-Benzoyl-1,2,3,4-tetrahydropyrido[2,3-b]pyrazin-7-yl)-N-(3-dimethylamino-propyl)benzamide], the melting point was 94 °C. In addition, the half-maximal inhibitory concentration (IC50) in data set [1] lay within 10 to 100 µM. Also, the 50% inhibitory concentration (IC50) in data set [2] was over 100 µM.

The compound `CCOC(=O)c1ccc(-c2cnc3c(c2)N(Cc2cc(F)ccc2F)C(=O)CN3)cc1` [Example 55, 4-[1-(2,5-Difluorobenzyl)-2-oxo-1,2,3,4-tetrahydropyrido[2,3-b]pyrazin-7-yl]benzoic acid ethyl ester] returned a melting point of 201 to 203 °C. Also, the IC50 in data set [1] is over 100 µM. Besides, in data set [2], the IC50 lay in the range of 10 to 100 µM.

In turn, `O=C(c1ccccc1)N1CCNc2ncc(I)cc21` [Example 42, (7-Iodo-3,4-dihydro-2H-pyrido[2,3-b]pyrazin-1-yl)phenylmethanone] displayed a melting point of 164 to 166 °C. Besides, in data set [1], the concentration for half-maximal inhibition (IC50) is over 100 µM. In addition, in data set [2], the half-maximal inhibitory concentration (IC50) was over 100 µM.

In turn, `O=C(c1ccc(-c2cnc3c(c2)N(Cc2cc(Cl)ccc2C(F)(F)F)CCN3)cc1)N1CCCCC1` [Example 204] displayed a melting point of 216 °C. For the same compound, in data set [1], the 50% inhibitory concentration (IC50) fell in the range of 10 to 100 µM. Further, in data set [2], the IC50 lay in the range of 0.1 to 1 µM.

In turn, `CN1CCN(C(=O)c2ccc(-c3cnc4c(c3)N(Cc3cc(F)ccc3F)C(=O)C(C)(C)N4)cc2)CC1` [Example 95, 1-(2,5-Difluorobenzyl)-3,3-dimethyl-7-[4-(4-methylpiperazine-1-carbonyl)phenyl]-3,4-dihydro-1H-pyrido[2,3-b]pyrazin-2-one] had a melting point of 204 to 206 °C. Besides, the IC50 in data set [1] was 10 to 100 µM. The IC50 in data set [2] was 1 to 10 µM.

In turn, `O=S(=O)(c1cc(F)ccc1F)N1CCNc2ncc(I)cc21` [Example 121, 1-(2,5-Difluorobenzenesulfonyl)-7-iodo-1,2,3,4-tetrahydropyrido[2,3-b]pyrazine] came in with a melting point of 187 to 188 °C. Further, the concentration for half-maximal inhibition (IC50) in data set [1] was in the range of 10 to 100 µM. The IC50 in data set [2] was in the range of 1 to 10 µM.

Compound `CCOC(=O)c1cnc2c(c1)N(Cc1cc(F)ccc1F)CCN2` [Example 75, 1-(2,5-Difluorobenzyl)-1,2,3,4-tetrahydropyrido[2,3-b]pyrazine-7-carboxylic acid ethyl ester] registered a melting point of 124 to 125 °C. In addition, the IC50 in data set [1] was in the range of 10 to 100 µM. For the same compound, in data set [2], the concentration for half-maximal inhibition (IC50) was 0.1 to 1 µM.

`Clc1ccc(Cl)c(CN2CCNc3ncc(-c4ccc(Cl)nc4)cc32)c1` [Example 165, 7-(6-Chloropyridin-3-yl)-1-(2,5-dichlorobenzyl)-1,2,3,4-tetrahydropyrido[2,3-b]pyrazine] yielded a melting point of 205 °C. Also, the IC50 in data set [1] is over 100 µM. The IC50 in data set [2] lay in the range of 0.1 to 1 µM.

In turn, `CCOC(=O)c1ccc(-c2cnc3c(c2)N(Cc2ccccc2)CCN3)cc1` [Example 35, 4-(1-Benzyl-1,2,3,4-tetrahydropyrido[2,3-b]pyrazin-7-yl)benzoic acid ethyl ester] registered a melting point of 178 to 179 °C. Further, in data set [1], the concentration for half-maximal inhibition (IC50) is over 100 µM. Also, the half-inhibitory concentration (IC50) in data set [2] fell in the range of 1 to 10 µM.

Regarding `OC1CCNc2ncc(Br)cc21` (stereo not drawn) [Example 268, 6-bromo-1,2,3,4-tetrahydro-[1,8]naphthyridin-4-ol], the melting point lay in the range of 125 to 128 °C. Besides, the half-maximal inhibitory concentration (IC50) in data set [1] was over 100 µM. The half-inhibitory concentration (IC50) in data set [2] is over 100 µM.

Turning to `O=C(O)c1ccc(-c2cnc3c(c2)N(Cc2cc(F)ccc2F)CCN3)cc1` [Example 64, 4-[1-(2,5-Difluorobenzyl)-1,2,3,4-tetrahydropyrido[2,3-b]pyrazin-7-yl]benzoic acid], the melting point was over 300 °C. Also, the IC50 in data set [1] fell in the range of 10 to 100 µM. Further, in data set [2], the IC50 lay within 0.1 to 1 µM.

Regarding `O=C(O)c1ccc(-c2cnc3c(c2)N(Cc2ccccc2OC(F)(F)F)CCN3)cc1` [Example 298, 4-{1-[2-(Trifluoromethoxy)benzyl]-1,2,3,4-tetrahydropyrido[2,3-b]pyrazin-7-yl}benzoic acid], the melting point was 250 °C. Besides, the IC50 in data set [1] is over 100 µM. Also, the IC50 in data set [2] lay in the range of 1 to 10 µM.

For the compound `O=C(O)CCNc1cccc(Br)n1` [Example 265, 3-(6-bromo-pyridin-2-ylamino)propionic acid], the melting point lay within 108 to 109 °C. Moreover, the IC50 in data set [1] was over 100 µM. Besides, the IC50 in data set [2] is over 100 µM.

Consider `O=C(NCCN1CCCC1)c1ccc(-c2cnc3c(c2)N(Cc2c(Cl)cccc2Cl)C(=O)CN3)cc1` [Example 142, 4-[1-(2,6-Dichlorobenzyl)-2-oxo-1,2,3,4-tetrahydropyrido[2,3-b]pyrazin-7-yl]-N-(2-pyrrolidin-1-yl-ethyl)benzamide], for which the melting point is over 200 °C. Further, the IC50 in data set [1] lay in the range of 1 to 10 µM. Moreover, the half-maximal inhibitory concentration (IC50) in data set [2] lay within 0.1 to 1 µM.

Consider `Ic1cnc2c(c1)NCCN2` [Example 40, 7-Iodo-1,2,3,4-tetrahydropyrido[2,3-b]pyrazine], for which the melting point was 126 to 128 °C. Further, the 50% inhibitory concentration (IC50) in data set [1] was over 100 µM. Further, the IC50 in data set [2] is over 100 µM.

Take `N#Cc1cnc2c(c1)N(Cc1cc(Cl)ccc1Cl)CCN2` [Example 127, 1-(2,5-Dichlorobenzyl)-1,2,3,4-tetrahydropyrido[2,3-b]pyrazine-7-carbonitrile]: the melting point fell in the range of 221 to 222 °C. In data set [1], the concentration for half-maximal inhibition (IC50) was over 100 µM. In addition, the IC50 in data set [2] was in the range of 1 to 10 µM.

In turn, `O=C1CNc2ncc(I)cc2N1Cc1cc(F)ccc1C(F)(F)F` [Example 133, 1-(5-Fluoro-2-trifluoromethylbenzyl)-7-iodo-3,4-dihydro-1H-pyrido[2,3-b]pyrazin-2-one] came in with a melting point of 244 to 245 °C. In addition, the IC50 in data set [1] was over 100 µM. Moreover, in data set [2], the IC50 was over 100 µM.

Take `CC1(C)Nc2ncc(I)cc2NC1=O` [Example 91, 7-Iodo-3,3-dimethyl-3,4-dihydro-1H-pyrido[2,3-b]pyrazin-2-one]: the melting point is over 300 °C. The concentration for half-maximal inhibition (IC50) in data set [1] was in the range of 10 to 100 µM. Besides, in data set [2], the IC50 was over 100 µM.

In turn, `FC(F)(F)c1ccc(CN2CCNc3ncc(I)cc32)o1` [Example 291, 7-Iodo-1-[5-(trifluoromethyl)furan-2-ylmethyl]-1,2,3,4-tetrahydropyrido[2,3-b]pyrazine] had a melting point of 153 to 154 °C. Moreover, in data set [1], the IC50 is over 100 µM. The IC50 in data set [2] is 10 to 100 µM.

With `CN1CCN(C(=O)c2ccc(-c3cnc4c(c3)N(Cc3cc(F)ccc3F)C(=O)CN4)cc2)CC1` [Example 59, 1-(2,5-Difluorobenzyl)-7-[4-(4-methylpiperazine-1-carbonyl)phenyl]-3,4-dihydro-1H-pyrido[2,3-b]pyrazin-2-one], the melting point was 223 °C (dec.). In addition, the half-inhibitory concentration (IC50) in data set [1] lay within 10 to 100 µM. Further, in data set [2], the concentration for half-maximal inhibition (IC50) was 0.1 to 1 µM.

Source of the values: patent US7601716B2, “Pyridopyrazines and derivatives thereof as ALK and c-Met inhibitors” (Cephalon, Inc., priority 2006, dated 2009).
